We go through four molecules from article PMC5923171, “Novel Zinc-Attenuating Compounds as Potent Broad-Spectrum Antifungal Agents with In Vitro and In Vivo Efficacy” (Antimicrobial Agents and Chemotherapy, 2018).

Structures are written as SMILES.

Experiment [1] deals with A. fumigatus. The arrangement: method as in PMID 27401578. The settings on record: cited from earlier work.
The test system of experiment [2] is invasive pulmonary aspergillosis. Details: method as in PMID 26438863. The settings on record: after 7 days, compared to vehicle treatment; cited from earlier work.
The subject of experiment [3] is Candida albicans. Description: Abrogation of the antifungal effect by exogenous divalent metals. The settings on record: for fungal growth rate compared to control cells: in the presence of 100 μM Fe^2+. Type of experiment: cell-based. The method, then:
Antifungal susceptibility testing was carried out as described previously ([38], [39]), with a few modifications. Briefly, for each yeast or mold growth inhibition assay, frozen stocks of yeast cells or spores were diluted to a final concentration of 0.5 × 10^5 to 2.5 × 10^5 CFU/ml in sterile water. ZAC989, ZAC307, and ZAC623 were dissolved in DMSO to 10 mM stocks from which half-log serial dilutions were prepared. Growth assays were subsequently performed by pipetting 3 μl of compound dissolved in DMSO (giving a final concentration of 1.5% DMSO), 100 μl of cell-spore suspension, and 97 μl of 2× RPMI medium (20.8 g/liter of RPMI 1640 medium, 69.06 g/liter of morpholinepropanesulfonic acid [MOPS], 36 g/liter of glucose) into a microtiter plate that was incubated for 24 h (yeasts) or 48 to 72 h (molds) at 34°C. Fungal growth was determined spectrophotometrically by optical density reading of each well at a wavelength of 492 nm on a Victor X5 (Perkin-Elmer) plate reader. […] Standard errors between repeated experiments were generally below 5%. The growth effect of exogenous addition of various divalent metals was evaluated by performing the antifungal […], MgCl2, and CaCl2.

The subject of experiment [4] is A. fumigatus. The settings on record: combination with amphotericin B lipid complex (ABLC), compared with either agent alone; cited from earlier work.
Experiment [5] relates to A. fumigatus AF721 (ΔzrfA ΔzrfB ΔzrfC). Description: Growth capacity in sRPMI medium, 24-well plates. The class given is cell-based, Aspergillus fumigatus.

With `c1ccc(CN(CCN(Cc2ccccn2)Cc2ccccn2)Cc2ccccn2)nc1` [TPEN, N,N,N’,N’-tetrakis(2-pyridylmethyl)-ethylenediamine], the survival times result in experiment [1] (in combination with caspofungin, compared to either drug alone, murine models of invasive aspergillosis) is reported as “significantly increased survival times”. The “survival and fungal burden” value in experiment [1] (monotherapy) is given as “significant improvements in survival with concomitant reduction in fungal burden”. For the same molecule, the survival result in experiment [2] is “significantly increase survival”.
For the molecule `CN(C)c1cc(-n2nc(-c3ccccc3)cc2O)ncn1` [ZAC307, 2-[6-(dimethylamino)pyrimidin-4-yl]-5-phenyl-pyrazol-3-ol], in experiment [3], the “effect of exogenous addition of zinc or copper on the antifungal effects” value was “reversed” and the “fungal growth rate compared to control cells” value is recorded as “approximately 50%”.
As to `O=C(O)CN(CCN(CC(=O)O)CC(=O)O)CC(=O)O` [EDTA], the “survival times and tissue burden” value in experiment [4] was “improved survival times and a lower tissue burden of A. fumigatus”.
Take `Cc1cc(O)n(-c2cc(N3CC[C@H](Oc4cnccc4C#N)C3)ncn2)n1` [ZAC989, 3-[(3S)-1-[6-(5-hydroxy-3-methyl-pyrazol-1-yl)pyrimidin-4-yl]pyrrolidin-3-yl]oxy-pyridine-4-carbonitrile]: in experiment [3], the “effect of exogenous addition of zinc or copper on the antifungal effects” value is listed as “reversed” and the “fungal growth rate compared to control cells” value is reported as “approximately 50%”. The “growth capacity in the presence of 50 μM zinc (in words)” value in experiment [5] is listed as “noticeably inhibited the growth capacity of AF721”.
